# Measurements from patent US20120028897A1, “METHODS AND COMPOSITIONS FOR THE TREATMENT OF FLUID RETENTION DISORDERS” (priority 2008, published 2012).
# What was measured:
# [1] = test system: anesthetized rats; assay: Renal blood flow (flow probe on left renal artery); assay type: in vivo, rat
# Experimental: Arterial blood pressure was measured with a pressure transducer connected to a cardiovascular analyzer (Model 50110, Stoelting Instruments Wood Dale, Ill.). Left renal blood flow was measured in some rats with a flow probe positioned on the left renal artery and connected to a blood flow monitor (model 1 PRB probe and model T420 monitor, Transonic Systems Inc. Ithaca N.Y.). Arterial pressure, heart rate, and renal blood flow were digitized with an A/D converter (Keithley instruments, Cleveland, Ohio Model KUSB 3100) for display and storage on a Windows-based personal computer using open layers data acquisition software (Dtx_Ez, Data Translation Inc, Marlboro, Mass.). Sodium and potassium concentrations in plasma and urine were measured by flame photometry (Model 943, Instrumentation Laboratory Co., Lexington Mass.). Glomerular filtration rate (GFR) was measured as the renal clearance rate of FITC-labeled inulin
# (§1) After post-surgical equilibration (−60 min) and three 20 min control clearance periods, huUgnA or B was infused into the jugular vein at 10 μl/min over a 60 min period, followed by a return to isotonic saline for the remainder of the experiment. The infused doses of huUgnA were 12, 25, 50, 100, or 200 nmol/kg BW in a total of 38 rats; huUgnB doses were 9, 18, 35, 70, and 140 nmol/kg BW in 35 rats. A UgnA mimetic, E. coli STh (ST-core), was infused into a third group of 32 rats at doses of 17, 32, 66, 133, and 266 nmol/kg. Renal excretory responses to these infusions were slow to develop and long lasting, so clearance periods were continued for 2-3 hr after the termination of the peptide infusion. This protracted time course limited protocols to one dose of one peptide in each rat. A control group of 10 rats received isotonic saline at 10 μl/min in place of the peptide infusion, but was otherwise treated in the same way as the experimental groups.
# [2] = Urinary excretion and isomer identity after iv infusion (T84 bioassay and LC-MS of urine); assay type: in vivo, rat; conditions: for stability of identity and properties in vivo: infused rats; for GC-C stimulating activity recovered in urine: T84 bioassay
# Experimental: FIG. 3A is a graph showing urinary excretion of “UgnA like” activity as a function of time in animals treated with the either huUgnA (filled symbols) or huUgnB (open symbols). huUgn was infused into an anesthetized rat during the period indicated by the horizontal bar. […] A sample of the urine acquired during each clearance period was evaluated for activity in the T84 cell bioassay. The resulting cyclic GMP responses were then converted to apparent recoveries of “UgnA-like” peptide by interpolation on a huUgnA standard curve (constructed as in FIG. 1A). Appropriate dilutions were chosen to ensure that the activity in each sample would not saturate this assay.
# as §1
# (§2) HPLC analysis and mass spectroscopy of Ugn isomers. The integrity and purity of huUgnA and B isomer preparations were confirmed by liquid chromatography/mass spectroscopy (LC-MS) analysis. The two Ugn isomers have different retention times on a reverse phase HPLC column (FIG. 1, dashed trace; huUgnA elutes ˜0.35 minutes before huUgnB). Separations were performed on a Hypersil Gold AQ 2.1×50 mm column from Thermo Fisher Scientific Inc (Waltham, Mass.) equilibrated in 98% buffer A (0.1% formic acid), 2% buffer B (85:10:5 Acetonitrile/Isopropyl Alcohol/5 mM NH4OAc pH 5.8) with a flow rate of 0.4 ml/min on an Acquity HPLC system. After a 2.5 minute wash with the same buffers, peptides were eluted with a linear gradient of 2% buffer B to 80% buffer B over 25 minutes and held for one minute before an increase to 90% B over 2 minutes to wash the column, followed by a return to 2% buffer B over 3 minutes.
# Peptide masses were determined using a Micromass Q-T of II instrument equipped with an electrospray ionization (ESI) source operating in positive ion mode. The instrument was programmed to scan in the mass range of m/z 100 to 1800. Molecular weight predictions and data analysis were carried out with MassLynx version 4.0 software. […] were injected directly without any sample preparation using an Acquity HPLC system connected in line with the Q-T of II.
# Bioassay of huUgnA-like activity. The concentration of huUgnA-like bioactivity in infused peptide solutions and in urine collected during experiments was measured using a T84 cell-based bioassay, as described previously. T84 cells are a colon carcinoma cell line that increases cyclic GMP production in response to GC-C receptor agonists such as Ugn, Gn and ST core peptide. T84 cells were grown to near confluence in 12 well culture clusters, and then incubated with unknowns or standard concentrations of huUgnA. Standards or urine samples were diluted into bioassay medium (1 mM 3-isobutyl-1-methylxanthine, 0.03 mM phenol red, 137 mM NaCl, 5.4 mM KCl, 0.25 mM Na2HPO4, 0.44 mM KH2PO4, 1.3 mM CaCl2, 1.0 mM MgSO4, 4.2 mM NaHCO3, 10 mM HEPES buffered at pH 7.0) and the pH was adjusted to 7.0, if required, using the phenol red indicator dye as a guide. This pH adjustment was necessary, as it is well-established that the response of T84 cells to UGn is highly pH dependent. […]
# [3] = molecular target: cultured GC-C-expressing cells (Homo sapiens, UniProt P25092); conditions: cited from earlier work
# Chain of cultured GC-C-expressing cells (P25092 24-1073): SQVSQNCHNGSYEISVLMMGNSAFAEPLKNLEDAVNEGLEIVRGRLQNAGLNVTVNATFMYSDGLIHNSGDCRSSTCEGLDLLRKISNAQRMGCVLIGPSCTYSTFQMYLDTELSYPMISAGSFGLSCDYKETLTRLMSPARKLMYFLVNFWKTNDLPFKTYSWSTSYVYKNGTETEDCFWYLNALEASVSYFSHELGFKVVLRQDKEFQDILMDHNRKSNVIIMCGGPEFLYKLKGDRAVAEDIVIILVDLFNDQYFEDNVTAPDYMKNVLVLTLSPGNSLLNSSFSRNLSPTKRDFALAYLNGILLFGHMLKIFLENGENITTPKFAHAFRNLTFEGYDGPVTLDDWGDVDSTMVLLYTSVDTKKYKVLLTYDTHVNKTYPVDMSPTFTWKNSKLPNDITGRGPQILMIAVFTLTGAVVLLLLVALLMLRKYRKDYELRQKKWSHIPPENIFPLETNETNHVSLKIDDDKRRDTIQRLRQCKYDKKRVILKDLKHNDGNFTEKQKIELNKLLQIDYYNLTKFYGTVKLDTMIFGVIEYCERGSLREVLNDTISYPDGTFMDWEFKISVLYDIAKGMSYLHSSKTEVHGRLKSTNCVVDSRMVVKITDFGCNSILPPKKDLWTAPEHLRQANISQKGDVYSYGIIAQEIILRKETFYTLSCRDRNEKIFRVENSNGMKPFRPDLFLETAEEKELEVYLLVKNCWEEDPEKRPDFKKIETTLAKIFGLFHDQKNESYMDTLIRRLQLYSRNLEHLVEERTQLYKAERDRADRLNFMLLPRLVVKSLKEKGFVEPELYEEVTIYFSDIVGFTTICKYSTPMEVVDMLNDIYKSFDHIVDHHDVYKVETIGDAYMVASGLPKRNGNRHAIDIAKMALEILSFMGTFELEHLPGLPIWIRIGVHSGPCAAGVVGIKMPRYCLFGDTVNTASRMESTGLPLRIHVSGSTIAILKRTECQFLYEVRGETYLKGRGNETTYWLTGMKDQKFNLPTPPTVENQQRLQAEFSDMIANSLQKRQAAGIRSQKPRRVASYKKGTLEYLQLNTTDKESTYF
# [4] = Interconversion of huUgn A and B isomers in vitro (storage at −80° C.; pH 4, 50° C.); assay type: physicochemical; conditions: LC-MS at periodic intervals
# Experimental: FIG. 2C is a graph showing the amount of “UgnA like” activity as a function of time in cells treated with either huUgnA and huUgnB. The A and B isomers (filled and open circles, respectively) interconvert slowly in vitro. Peptides were incubated at 50° C. in 1 mM citrate buffer (pH 4) for either 0, 24, or 48 hr. Samples were then diluted into bioassay medium, the pH was adjusted to 7.0, and activity was measured in the T84 cell bioassay. A huUgnA standard curve was generated in the same assay, and cyclic GMP responses were converted to recoveries of “UgnA-like” peptide by interpolation on this standard curve.
# as §2, with “After a 2.5 minute wash with the same buffers, peptides were eluted with a linear gradient of 2% buffer B to 80% buffer B over 25 minutes and held for one minute before an increase to 90% B over 2 minutes to wash the column, followed by a return to 2% buffer B over 3 minutes.” left out
SMILES,"Renal blood flow (RBF) ([1]; 25 nmol UgnA, before (first value of change), n=4)","Renal blood flow (RBF) ([1]; after 25 nmol UgnA, p<0.001, n=4)",stability of identity and properties in vivo [2],"isomerization in vivo, LC-MS of urine at peak peptide excretion ([2]; iv infusion, anesthetized rat)","return of urinary GC-C stimulating activity to baseline after infusion was terminated ([2]; iv infusion, anesthetized rat)","time to appearance of GC-C stimulating activity in urine from start of infusion ([2]; iv infusion, anesthetized rat)","GC-C stimulating activity recovered in urine ([2]; iv infusion, anesthetized rat)","EC50 ([3]; read-out: EC50, cGMP responses)",conversion from one isoform to the other during storage [4],"Renal blood flow (RBF) ([1]; 35 nmol huUgnB/kg, before (first value of change), n=4)","Renal blood flow (RBF) ([1]; after 35 nmol huUgnB/kg, p<0.001, n=4)","potency, fold less potent than the A isomer [3]"
"CC(C)C[C@H](NC(=O)[C@@H]1CSSC[C@@H]2NC(=O)[C@H](CC(C)C)NC(=O)[C@H](CCC(=O)O)NC(=O)[C@@H](NC(=O)[C@H](CC(=O)O)NC(=O)[C@H](CC(=O)O)NC(=O)[C@@H](N)CC(N)=O)CSSC[C@H](NC(=O)[C@H](C)NC(=O)[C@H](C(C)C)NC(=O)[C@H](CC(N)=O)NC(=O)[C@H](C(C)C)NC2=O)C(=O)N[C@@H]([C@@H](C)O)C(=O)NCC(=O)N1)C(=O)O (single isomer, unassigned) [huUgnA, Asn Asp Asp Cys Glu Leu Cys Val Asn Val Ala Cys Thr Gly Cys Leu, reference compound]",2.7+0.3 ml/min/g KW,3.2+0.1 ml/min/g KW,sufficiently stable for use in acute animal studies,essentially no isomerization had occurred,within an hour,≤ 20 min,a significant amount,~100 nM,did not occur,–,–,–
"CC(C)C[C@H](NC(=O)[C@@H]1CSSC[C@@H]2NC(=O)[C@H](CC(C)C)NC(=O)[C@H](CCC(=O)O)NC(=O)[C@@H](NC(=O)[C@H](CC(=O)O)NC(=O)[C@H](CC(=O)O)NC(=O)[C@@H](N)CC(N)=O)CSSC[C@H](NC(=O)[C@H](C)NC(=O)[C@H](C(C)C)NC(=O)[C@H](CC(N)=O)NC(=O)[C@H](C(C)C)NC2=O)C(=O)N[C@@H]([C@@H](C)O)C(=O)NCC(=O)N1)C(=O)O (single isomer, unassigned) [huUgnB, Asn Asp Asp Cys Glu Leu Cys Val Asn Val Ala Cys Thr Gly Cys Leu]",–,–,sufficiently stable for use in acute animal studies,a clearly discernable huUgnB signal along with a barely detectible huUgnA signal,–,–,very little,–,did not occur,2.5+0.1 ml/min/g KW,3.0+0.4 ml/min/g KW,more than 100 fold
